We go through 4 compounds from US6958350B2, “Chemical compounds” (AstraZeneca AB, priority 2001, dated 2005).

The structures appear in SMILES notation.

The melting point is the temperature, or range, at which the solid turns liquid. On to `O=C(CCc1nnc(Nc2ccccc2Cl)o1)NC1CCN(Cc2ccc(Cl)c(Cl)c2)CC1` [Compound No. 6 of Table I, 3-[5-(2-chloro-phenylamino)-[1,3,4]oxadiazol-2-yl]-N-[1-(3,4-dichloro-benzyl)-piperidin-4-yl]-propionamide], for which the melting point lay within 154 to 156 °C. In the case of `O=C(Cc1csc(Nc2ccccc2)n1)NC1CCN(Cc2ccc(Cl)c(Cl)c2)CC1` [Compound No. 1 of Table V, 2-(2-Anilino-1,3-thiazol-4-yl)-N-[1-(3,4-dichlorobenzyl)piperidin-4-yl]acetamide] it was 191 to 192 °C. In the case of `O=C(CCc1nnc(Nc2ccccc2Cl)o1)NC1CCN(Cc2ccc(F)c(F)c2)CC1` [Compound No. 22 of Table I, 3-[5-(2-chloro-phenylamino)-[1,3,4]oxadiazol-2-yl]-N-[1-(3,4-difluorobenzyl)-piperidin-4-yl]-propionamide] it was 162 to 163 °C.

On to `O=C(Cc1nnc(Nc2ccccc2)o1)NC1CCN(Cc2ccc(Cl)c(Cl)c2)CC1` [Compound No. 1 of Table I, N-[1-(3,4-Dichlorobenzyl)-piperidin-4-yl]-2-(5-phenylamino-[1,3,4]oxadiazol-2-yl)-acetamide], for which the melting point is 191 to 217 °C.
